The source of these data is US7838533B2, “Azaindole inhibitors of MTP and ApoB” (Merck Patent GmbH, priority 2004, dated 2010).

What is called IC50 is the midpoint of a concentration-inhibition curve.

Test [1] has as its system apo B secretion in HepG2 cells. The test is described as follows: Inhibition of ApoB secretion in HepG2 cells, sandwich ELISA. The test is classed as cell-based. The following applies: 24 hours incubation, ELISA specific for human apo B. As for the experimental part: The activity of a compound according to the invention can be evaluated by measuring the inhibition of apo B secretion in HepG2 cells.
The HepG2 cells (ECACC No. 85011430) are used as model in the study of the in vitro hepatic secretion of lipoproteins (Dixon J. and Ginsberg H., J. Lipid. Res., 1993, 34, 167-179).
The HepG2 cells are cultured in Dulbecco's modified Eagle's medium comprising 10% foetal calf serum (DMEM and FBS-Gibco) in 96-well plates under an atmosphere of 5% carbon dioxide for 24 hours (about 70% confluence).
The test compounds are dissolved at a concentration of 2 or 10 mM in dimethyl sulfoxide (DMSO). Serial dilutions (1:3.16) are made in DMSO and are added (1:200—Robot Multimek Beckman) to the growth medium (200 μL) and then finally incubated for 24 hours in the various wells containing the HepG2 cells.
The 24-hour culture supernatant diluted to 1:5 (phosphate-buffered saline: PBS comprising 1% bovine serum albumin) is tested according to a sandwich-ELISA method specific for human apo B.
The results are expressed in terms of IC50, i.e. the concentration that produces a 50% inhibition of apo B secretion in the HepG2 cells.

Test [2] deals with T1, microsomal triglyceride transfer protein (MTP) (Mesocricetus auratus, UniProt P55158).
T1 construct: The supernatant comprising the soluble MTP is dialysed; from tissue; host or cells: golden hamster liver microsomes, deoxycholate-solubilised supernatant
T1 sequence (P55158 19-895): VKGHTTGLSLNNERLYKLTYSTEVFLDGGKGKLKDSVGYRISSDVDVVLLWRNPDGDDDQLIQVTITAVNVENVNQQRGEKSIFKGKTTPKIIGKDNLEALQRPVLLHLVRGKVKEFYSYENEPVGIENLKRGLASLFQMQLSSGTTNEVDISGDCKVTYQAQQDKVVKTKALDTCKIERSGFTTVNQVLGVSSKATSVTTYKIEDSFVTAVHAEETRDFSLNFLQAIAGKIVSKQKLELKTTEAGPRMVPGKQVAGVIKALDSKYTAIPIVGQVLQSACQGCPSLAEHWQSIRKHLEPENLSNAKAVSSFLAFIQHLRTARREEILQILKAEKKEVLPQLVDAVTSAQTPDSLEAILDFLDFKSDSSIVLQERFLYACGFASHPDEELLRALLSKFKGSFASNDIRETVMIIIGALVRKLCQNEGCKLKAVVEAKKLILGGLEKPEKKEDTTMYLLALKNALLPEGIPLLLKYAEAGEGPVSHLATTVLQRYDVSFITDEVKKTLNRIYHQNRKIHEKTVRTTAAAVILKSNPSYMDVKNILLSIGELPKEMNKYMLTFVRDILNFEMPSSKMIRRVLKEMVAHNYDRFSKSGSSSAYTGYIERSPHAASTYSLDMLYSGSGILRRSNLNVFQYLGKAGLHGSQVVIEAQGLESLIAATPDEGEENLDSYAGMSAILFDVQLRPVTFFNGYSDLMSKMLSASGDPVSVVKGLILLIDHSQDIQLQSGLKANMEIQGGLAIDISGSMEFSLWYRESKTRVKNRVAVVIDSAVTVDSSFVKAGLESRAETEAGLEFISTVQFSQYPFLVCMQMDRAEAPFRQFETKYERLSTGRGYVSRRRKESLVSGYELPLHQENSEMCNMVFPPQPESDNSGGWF
The test is described as follows: Inhibition of MTP activity: transfer of [3H]-triolein from donor liposomes to biotinylated LDL, SPA. The test is classed as biochemical. The following applies: MTP from golden hamster liver; incubation 18-24 hours at 37° C. As for the experimental part: The inhibition of the activity of microsomal triglyceride transfer protein (MTP) was tested by using the following operating protocol.
The inhibition of MTP activity with a compound can be quantified by observing the inhibition of the transfer of a labelled triglyceride, from a donor particle to an acceptor particle, in the presence of MTP. The procedure for the preparation of MTP is based on the method by Wetterau and Zilversmit (Biochem. Biophys. Acta (1986) 875, 610). A few grams of golden hamster liver are taken and then rinsed several times in a 250 mM sucrose solution at 0° C. All the following steps proceed at +4° C. A homogenate at a concentration of 50% in 250 mM sucrose is prepared using a Teflon mill and then centrifuged for 10 minutes at 10 000×g at +4° C. The supernatant is then centrifuged at 105 000×g for 75 minutes at +4° C. The supernatant is discarded and the microsomal pellet is taken up in 3 ml (per g of starting liver) of Tris/HCl 150 mM pH 8.0. 1-ml aliquot fractions are stored at −80° C. until the time of use.
After thawing a fraction of microsomes (1 ml), 12 ml of refrigerated Tris/HCl 50 mM, KCl 50 mM, MgCl2 5 mM pH 7.4 buffers and 1.2 ml of deoxycholate (0.54% in water) are added. After incubation for 30 minutes at +4° C. with gentle agitation, the suspension is centrifuged at […] for 75 minutes. […]
The reaction mixture is prepared in untreated ½ well white plates (Corning Costar) by addition, in the following order, of: 5 μl of HEPES 50 mM, NaCl 150 mM, BSA 0.1% (w/v), 0.05% sodium azide (w/v), pH 7.4 buffer; 5 μl of liposomes; 5 μl of LDL-biot; 5 μl of test products in DMSO; 5 μl of MTP. After incubation for 18-24 hours at 37° C., the reaction is stopped adding 100 μl of Amersham SPA (Scintillation Proximity Assay) beads coupled to streptavidin, and the radioactivity is counted using a Top Count (Packard) machine at least one hour later. The inhibition of the transfer of the triglycerides with a compound is reflected by a reduction in the transferred radioactivity. […]

As to `CS(=O)(=O)c1ccc(CNC(=O)C(CCCCn2cc(-c3ccccc3)c3cccnc32)C2CCCCC2)cc1` (stereo not drawn), the results for the IC50 in test [1] and in test [2] were 0.003 µM and 0.529 µM, respectively.

For `O=C(NCc1ccccc1)C(CCCCn1cc(-c2ccccc2)c2cccnc21)C1CCCCCC1` (stereo not drawn), the half-inhibitory concentration (IC50) was 0.015 µM in test [1] and 0.175 µM in test [2].

For `O=C(NCc1ccncc1)C(CCCCCn1cc(-c2ccccc2)c2cccnc21)C1CCCC1` (stereo not drawn), the IC50 in test [1] turned out to be 0.018 µM; in test [2] it was 0.381 µM.
